Legend:
MRC5 = test: Cytotoxicity against human MRC5 cells assessed as growth inhibition after 72 hrs by MTT assay; assay type: cell-based; conditions: MRC5, 72 h
SK-N-MC [1] = test: Cytotoxicity against human SK-N-MC cells assessed as growth inhibition after 72 hrs by MTT assay; assay type: functional, cell-based
[2] = Toxicity in intact human RBC assessed as methemoglobin formation at 25 uM after 3 hrs relative to untreated control; assay type: cell-based; conditions: erythrocyte
[3] = Toxicity in intact human RBC assessed as methemoglobin formation using Fe(compound)2 complex at 25 uM after 3 hrs relative to untreated control; assay type: cell-based; conditions: erythrocyte
[4] = Toxicity in human RBC lysates assessed as methemoglobin formation using Fe(compound)2 complex at 25 uM after 3 hrs relative to control; design: species or system Lysate; conditions: erythrocyte
[5] = Toxicity in human RBC lysates assessed as methemoglobin formation at 25 uM after 3 hrs relative to control; design: species or system Lysate; conditions: erythrocyte
SK-N-MC [6] = test: Reduction of cellular 59Fe uptake from 59Fe-Transferrin in human SK-N-MC cells assessed as 59Fe level prelabeled with 59Fe2-Tf at 25 uM after 3 hrs relative to control; assay type: functional; design: scale not given: the % may be the effect or the level left
[7] = Therapeutic index, ratio of IC50 for human MRC5 cells to IC50 for human SK-N-MC cells; assay type: cell-based; conditions: MRC5 cells and SK-N-MC cells, read-out: Ratio IC50
[8] = Induction of ascorbate oxidation in citrate buffer in presence of 10 uM Fe3+ at 1 to 60 uM; assay type: physicochemical
[9] = Toxicity in human RBC lysates assessed as methemoglobin formation at 25 uM after 3 hrs (reference value: 1.2 +/- 8%); assay type: cell-based, Lysate; conditions: erythrocyte
[10] = Toxicity in intact human RBC assessed as methemoglobin formation using Fe(compound)2 complex at 25 uM after 3 hrs relative to free ligand; conditions: erythrocyte

SMILES | IC50 (MRC5) [nM] | IC50 (SK-N-MC [1]) [nM] | Activity [2] | Activity [3] | Activity [4] | Activity [5] | Activity (SK-N-MC [6]) [%] | selectivity ratio [7] | Activity [8] | fold change (FC) [2] | Activity [9] [%] | fold change (FC) [10]
CNC(=S)N/N=C(\c1ccc(C)cc1)c1ccccn1 | 2120 | 15 | Non-toxic | Non-toxic | Toxic | Toxic | 8 | 141 |  |  |  | 
CN(C)C(=S)N/N=C(\c1ccccc1)c1ccccn1 |  | 5 |  |  |  |  |  | 202 | Not Active |  |  | 
NC(=S)N/N=C/c1ncccc1N [TRIAPINE] |  |  |  |  |  |  | 54 |  |  | 38 | 17 | 
Cc1ccc(/C(=N\NC(=S)N(C)C)c2ccccn2)cc1 | 921 | 7 | Non-toxic | Non-toxic |  |  | 8 | 131 | Not Active |  |  | 
CN(C)C(=S)NN=C(c1ccccn1)c1ccccn1 |  | 7 |  |  |  |  | 4 |  | Active | 45 | 12 | 2.3
CCNC(=S)N/N=C(\c1ccc(OC)cc1)c1ccccn1 | 1650 | 16 | Non-toxic | Non-toxic | Non-toxic | Non-toxic | 8 | 102 |  |  |  | 
CCNC(=S)N/N=C(\c1ccc(C)cc1)c1ccccn1 | 2140 | 13 | Non-toxic | Non-toxic | Non-toxic | Non-toxic | 8 | 164 |  |  |  | 
CNC(=S)N/N=C(\c1ccc(C(C)(C)C)cc1)c1ccccn1 | 2460 | 15 | Non-toxic | Non-toxic | Non-toxic | Non-toxic |  | 164 |  |  |  | 
Cc1ccc(/C(=N\NC(=S)Nc2ccccc2)c2ccccn2)cc1 | 1520 | 24 | Non-toxic | Non-toxic | Non-toxic | Non-toxic |  | 63 |  |  |  | 
CNC(=S)N/N=C(\c1ccccc1)c1ccccn1 |  | 20 | Non-toxic | Non-toxic | Non-toxic | Non-toxic |  | 116 |  |  |  | 
COc1ccc(/C(=N\NC(N)=S)c2ccccn2)cc1 | > 12500 | 3950 | Toxic | Toxic | Non-toxic | Non-toxic | 8 | > 3 | Active |  |  | 
CN(C)C(=S)N/N=C(\c1ccc(C(C)(C)C)cc1)c1ccccn1 | 1070 | 72 | Non-toxic | Non-toxic |  |  |  | 15 | Not Active |  |  | 
CC(=O)N(O)CCCCCNC(=O)CCC(=O)N(O)CCCCCNC(=O)CCC(=O)N(O)CCCCCN [DEFEROXAMINE] |  |  |  |  |  |  | 77 |  |  |  |  | 
CCNC(=S)N/N=C(\c1ccc(C(C)(C)C)cc1)c1ccccn1 | 2940 | 20 | Non-toxic | Non-toxic | Non-toxic | Non-toxic |  | 147 |  |  |  | 
COc1ccc(/C(=N\NC(=S)N(C)C)c2ccccn2)cc1 | 1140 | 17 | Non-toxic | Non-toxic |  |  | 8 | 66 | Not Active |  |  | 
COc1ccc(/C(=N\NC(=S)Nc2ccccc2)c2ccccn2)cc1 | 864 | 19 | Non-toxic | Non-toxic | Non-toxic | Non-toxic |  | 45 |  |  |  | 
NC(=S)N/N=C(\c1ccccc1)c1ccccn1 | > 12500 | 3800 | Toxic | Toxic | Non-toxic | Non-toxic |  | > 3 | Active |  |  | 
CC(C)(C)c1ccc(/C(=N\NC(=S)Nc2ccccc2)c2ccccn2)cc1 | 1890 | 109 | Non-toxic | Non-toxic | Non-toxic | Non-toxic |  | 17 |  |  |  | 
S=C(N/N=C(\c1ccccc1)c1ccccn1)Nc1ccccc1 | 571 | 16 | Non-toxic | Non-toxic | Non-toxic | Non-toxic |  | 36 |  |  |  | 
CNC(=S)N/N=C(\c1ccc(OC)cc1)c1ccccn1 | 2030 | 22 | Non-toxic | Non-toxic | Non-toxic | Non-toxic | 8 | 92 |  |  |  | 
CCNC(=S)N/N=C(\c1ccccc1)c1ccccn1 | 1490 | 14 | Non-toxic | Non-toxic | Non-toxic | Non-toxic |  | 106 |  |  |  | 
CC(C)(C)c1ccc(/C(=N\NC(N)=S)c2ccccn2)cc1 | 814 | 14 | Non-toxic | Non-toxic | Non-toxic | Non-toxic |  | 58 | Active |  |  | 
Cc1ccc(/C(=N\NC(N)=S)c2ccccn2)cc1 | > 12500 | 146 | Toxic | Toxic | Toxic | Toxic | 8 | > 85 | Active |  |  | 

Reference: ChEMBL document CHEMBL2311386, “Alkyl substituted 2'-benzoylpyridine thiosemicarbazone chelators with potent and selective anti-neoplastic activity: novel ligands that limit methemoglobin formation” (J Med Chem, 2013)
